Data taken from PMC11408249, “Non-invasive in vivo imaging of changes in Collagen III turnover in myocardial fibrosis” (npj Imaging, 2024).
Marks after values point to notes of the source that are not given here. Residues, ends and D or L forms follow the SMILES beside them. No end group written: not given here. *: point of attachment. DOTA = O=C(O)CN1CCN(CC(=O)O)CCN(CC(=O)*)CCN(CC(=O)O)CC1

Legend:
[1] = target: T1, COL3 (Homo sapiens, UniProt P02461); conditions: cited from earlier work
T1 sequence (P02461 154-1221 limits assumed): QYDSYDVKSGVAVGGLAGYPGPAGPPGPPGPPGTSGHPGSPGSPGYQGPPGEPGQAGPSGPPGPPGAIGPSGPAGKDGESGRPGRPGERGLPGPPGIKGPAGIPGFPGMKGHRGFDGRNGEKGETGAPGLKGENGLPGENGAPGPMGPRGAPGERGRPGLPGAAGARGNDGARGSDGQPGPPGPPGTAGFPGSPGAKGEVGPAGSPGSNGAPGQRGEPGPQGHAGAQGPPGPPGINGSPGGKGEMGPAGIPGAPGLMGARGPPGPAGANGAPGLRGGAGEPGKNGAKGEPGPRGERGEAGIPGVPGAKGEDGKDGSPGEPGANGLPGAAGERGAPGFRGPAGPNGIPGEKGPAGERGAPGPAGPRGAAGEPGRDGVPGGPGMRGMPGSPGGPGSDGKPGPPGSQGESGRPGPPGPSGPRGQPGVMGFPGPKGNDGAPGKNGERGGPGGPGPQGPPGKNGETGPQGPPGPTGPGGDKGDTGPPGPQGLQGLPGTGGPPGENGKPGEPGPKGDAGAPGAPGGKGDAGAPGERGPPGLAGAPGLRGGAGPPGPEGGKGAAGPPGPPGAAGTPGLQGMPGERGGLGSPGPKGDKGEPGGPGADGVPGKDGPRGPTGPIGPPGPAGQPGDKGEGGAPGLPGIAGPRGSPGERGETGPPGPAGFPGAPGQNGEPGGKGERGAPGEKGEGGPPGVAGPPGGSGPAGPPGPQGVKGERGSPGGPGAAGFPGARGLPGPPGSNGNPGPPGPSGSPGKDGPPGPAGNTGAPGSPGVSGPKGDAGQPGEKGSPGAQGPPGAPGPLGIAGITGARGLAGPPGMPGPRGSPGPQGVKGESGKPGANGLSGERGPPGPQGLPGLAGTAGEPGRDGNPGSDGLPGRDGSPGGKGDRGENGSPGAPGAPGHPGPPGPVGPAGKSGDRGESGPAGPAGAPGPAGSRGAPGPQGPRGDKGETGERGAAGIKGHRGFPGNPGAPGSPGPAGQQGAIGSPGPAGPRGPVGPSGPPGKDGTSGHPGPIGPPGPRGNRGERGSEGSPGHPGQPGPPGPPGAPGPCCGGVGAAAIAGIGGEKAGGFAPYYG
Description: (§1) The two peptides, DARKSEVQK (Collagen Binding Probe 1, CBP1) and TEFPLRMRDWLKN (CBP2), were identified from reported protein-protein interaction studies between collagen and other proteins[41],[43]. […] The TEFPLRMRDWLKN peptide is part of the secreted protein acidic and rich cysteine (SPARC) that binds to fibrillary collagens. The binding interaction between SPARC and collagens regulates collagen fibrillogenesis ...

[2] = system: COL3-induced platelet aggregation; conditions: cited from earlier work
Description: as §1

[3] = target: T2, COL3-rich fibres (Mus musculus, UniProt P08121); assay: Tissue co-localisation of fluorescent probe with COL3 fibres; parameters: species or system mice; conditions: murine model of vascular remodelling
T2 construct: Signal enhancement seen on the MRI coincided with COL3 fibres detected by histology; from tissue; host or cells: remodelled abdominal aortic wall of male ApoE-/- mice, in vivo and in excised sections
T2 sequence (P08121 155-1219 limits assumed): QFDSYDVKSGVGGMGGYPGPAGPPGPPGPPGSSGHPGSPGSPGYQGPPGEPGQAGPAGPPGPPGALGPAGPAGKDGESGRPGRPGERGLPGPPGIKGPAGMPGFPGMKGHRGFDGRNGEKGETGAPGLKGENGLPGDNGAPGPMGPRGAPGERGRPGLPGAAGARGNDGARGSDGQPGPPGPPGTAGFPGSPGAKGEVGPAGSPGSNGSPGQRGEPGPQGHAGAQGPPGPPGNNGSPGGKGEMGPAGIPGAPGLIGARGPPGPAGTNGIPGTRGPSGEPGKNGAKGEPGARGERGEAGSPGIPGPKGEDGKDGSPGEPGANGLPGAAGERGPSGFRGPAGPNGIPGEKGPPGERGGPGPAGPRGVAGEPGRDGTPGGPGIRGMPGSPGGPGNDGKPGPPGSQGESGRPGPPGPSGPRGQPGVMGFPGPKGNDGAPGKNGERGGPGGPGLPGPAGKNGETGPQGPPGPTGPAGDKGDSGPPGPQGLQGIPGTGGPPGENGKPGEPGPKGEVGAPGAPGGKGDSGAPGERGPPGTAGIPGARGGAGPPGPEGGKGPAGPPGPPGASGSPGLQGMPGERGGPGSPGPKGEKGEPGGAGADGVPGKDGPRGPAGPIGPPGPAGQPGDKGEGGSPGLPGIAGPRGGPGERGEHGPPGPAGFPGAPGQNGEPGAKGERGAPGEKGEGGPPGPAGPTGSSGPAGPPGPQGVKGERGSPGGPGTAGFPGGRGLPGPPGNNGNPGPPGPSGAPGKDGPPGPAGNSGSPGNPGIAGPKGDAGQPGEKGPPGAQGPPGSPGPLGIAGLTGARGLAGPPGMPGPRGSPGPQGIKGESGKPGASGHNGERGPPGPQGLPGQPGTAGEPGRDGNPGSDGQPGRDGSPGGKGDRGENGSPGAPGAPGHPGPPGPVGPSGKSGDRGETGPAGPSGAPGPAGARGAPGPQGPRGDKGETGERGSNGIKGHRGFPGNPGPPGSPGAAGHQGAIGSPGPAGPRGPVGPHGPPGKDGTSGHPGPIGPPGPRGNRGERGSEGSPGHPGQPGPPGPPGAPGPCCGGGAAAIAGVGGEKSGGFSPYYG
Description: (§2) The monomeric molecular probes ending with a N-terminus free DOTAMA chelator and with a C-terminus free carboxylic group were custom synthesised by Peptide Synthetics Ltd (Hampshire, United Kingdom) with a purity of >95%. The DOTAMA collagen-binding peptides were complexed in house with Gd(III) to obtain a contrast agent for MR molecular imaging, or with Eu(III) for in vitro binding studies using Time-Resolved Fluorescence (TRF) plate assays, or ^68Ga(III) for PET biodistribution studies. Metal complexation of the DOTAMA derivatives was performed in-house, by reacting the desired lanthanide ion (Gd^3+, Eu^3+) in a 1.05:1 L:M molar ratio at pH 5.5 and room temperature. Reaction evolution was confirmed by xylenol orange method. Upon reaction competition, the pH was adjusted to 7 and the samples were lyophilised and stored at −20 °C. The final concentration of the Gd(III) and Eu(III) complex solutions was assessed by ICP-OES and/or BMS. For tissue co-localisation experiments, the CBP1 was also synthesised in the fluorescently labelled form by conjugating a Rhodamine B derivative to its N-terminus (compound Rh-CBP1).

[4] = target: T3, COL1 fibres (Mus musculus, UniProt P11087+Q01149); assay: Tissue co-localisation of fluorescent probe with COL1 fibres; parameters: species or system mice; conditions: aortic tissue, murine model of vascular remodelling
T3 construct: from tissue; host or cells: sections of the remodelled aortic wall of ApoE-/- mice
T3 sequence (P11087 152-1207 limits assumed): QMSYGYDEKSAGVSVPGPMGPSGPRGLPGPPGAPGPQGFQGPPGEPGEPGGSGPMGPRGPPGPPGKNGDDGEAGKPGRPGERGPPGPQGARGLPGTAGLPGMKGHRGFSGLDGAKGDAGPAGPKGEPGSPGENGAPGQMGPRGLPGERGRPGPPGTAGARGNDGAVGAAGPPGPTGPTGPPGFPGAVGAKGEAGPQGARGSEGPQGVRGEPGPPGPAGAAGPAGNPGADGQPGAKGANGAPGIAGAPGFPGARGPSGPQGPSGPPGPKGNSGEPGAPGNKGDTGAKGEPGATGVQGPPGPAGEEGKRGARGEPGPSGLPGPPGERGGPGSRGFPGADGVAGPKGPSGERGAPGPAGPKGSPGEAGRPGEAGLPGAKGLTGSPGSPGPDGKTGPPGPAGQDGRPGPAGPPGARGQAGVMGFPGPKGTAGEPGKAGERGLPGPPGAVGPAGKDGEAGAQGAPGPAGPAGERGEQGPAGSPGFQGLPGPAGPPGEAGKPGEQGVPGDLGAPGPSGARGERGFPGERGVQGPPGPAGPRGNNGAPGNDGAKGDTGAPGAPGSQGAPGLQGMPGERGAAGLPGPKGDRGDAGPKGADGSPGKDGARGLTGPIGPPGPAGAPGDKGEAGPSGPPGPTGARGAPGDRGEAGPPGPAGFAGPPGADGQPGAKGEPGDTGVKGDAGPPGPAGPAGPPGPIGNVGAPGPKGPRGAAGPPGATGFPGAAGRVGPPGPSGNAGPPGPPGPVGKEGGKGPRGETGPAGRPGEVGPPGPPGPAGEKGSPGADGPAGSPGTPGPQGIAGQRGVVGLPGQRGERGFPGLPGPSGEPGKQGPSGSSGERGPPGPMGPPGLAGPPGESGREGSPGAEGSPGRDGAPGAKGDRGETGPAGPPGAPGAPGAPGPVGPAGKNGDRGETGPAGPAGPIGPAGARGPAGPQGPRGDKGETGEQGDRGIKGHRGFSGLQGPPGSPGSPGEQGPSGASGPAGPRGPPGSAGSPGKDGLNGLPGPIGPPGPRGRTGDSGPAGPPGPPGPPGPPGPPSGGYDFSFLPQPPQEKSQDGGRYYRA
T3 sequence (Q01149 86-1125 limits assumed): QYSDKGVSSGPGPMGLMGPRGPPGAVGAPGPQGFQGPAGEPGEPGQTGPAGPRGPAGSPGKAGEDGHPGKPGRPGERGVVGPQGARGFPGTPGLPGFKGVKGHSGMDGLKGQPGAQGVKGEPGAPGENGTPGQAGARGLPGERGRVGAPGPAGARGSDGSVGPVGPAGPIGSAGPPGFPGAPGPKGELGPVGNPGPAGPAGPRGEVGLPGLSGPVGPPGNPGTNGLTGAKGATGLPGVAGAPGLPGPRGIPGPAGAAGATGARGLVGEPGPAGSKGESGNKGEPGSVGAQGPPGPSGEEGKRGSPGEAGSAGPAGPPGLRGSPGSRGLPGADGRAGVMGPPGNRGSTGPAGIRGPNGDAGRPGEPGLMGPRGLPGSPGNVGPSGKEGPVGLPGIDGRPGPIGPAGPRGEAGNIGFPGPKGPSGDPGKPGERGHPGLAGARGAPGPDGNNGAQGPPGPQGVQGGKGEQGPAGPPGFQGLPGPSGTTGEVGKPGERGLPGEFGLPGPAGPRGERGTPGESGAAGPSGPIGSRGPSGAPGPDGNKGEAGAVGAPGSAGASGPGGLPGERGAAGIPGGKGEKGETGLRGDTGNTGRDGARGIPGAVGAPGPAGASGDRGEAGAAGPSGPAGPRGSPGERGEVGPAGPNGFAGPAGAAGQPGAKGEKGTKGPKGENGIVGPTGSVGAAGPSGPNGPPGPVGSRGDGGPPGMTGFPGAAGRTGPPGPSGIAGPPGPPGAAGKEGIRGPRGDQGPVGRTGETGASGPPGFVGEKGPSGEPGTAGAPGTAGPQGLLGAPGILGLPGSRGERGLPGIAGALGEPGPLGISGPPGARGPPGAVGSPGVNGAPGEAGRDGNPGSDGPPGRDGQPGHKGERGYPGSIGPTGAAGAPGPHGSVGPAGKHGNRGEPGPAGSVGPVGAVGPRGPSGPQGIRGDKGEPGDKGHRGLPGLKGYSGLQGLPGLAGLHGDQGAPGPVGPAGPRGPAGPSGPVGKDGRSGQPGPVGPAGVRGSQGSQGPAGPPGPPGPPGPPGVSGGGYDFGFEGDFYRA
Description: as §2

[5] = target: T4, COL3 (Mus musculus, UniProt P08121); assay: Molecular CMR of COL3 in a murine model of myocardial infarction; assay type: in vivo, mice; conditions: control agents, i.v. 0.2 mmol/kg, 30 minutes post-injection, n = 2–3 per group
T4 construct: from tissue; host or cells: infarcted left-ventricular myocardium of female CD1 mice, in vivo
T4 sequence (P08121 155-1219 limits assumed): T2 sequence (P08121 155-1219 limits assumed)

[6] = 20 MHz, 37 °C, cited from earlier work
Description: Table 1 Relaxivities of monomeric and tetrameric probes bearing CBP1 and CBP2 peptide moieties, in PBS and 0.6 mM human serum albumin (HAS) at 20 MHz and 37 °C | column: r1 mM (mM^−1 s^−1) / PBS; r1 mM (mM^−1 s^−1) / HSA 0.6 mM || To further characterise the molecular characteristics of these probes, the ^1H nuclear magnetic relaxation dispersion profiles (^1H-NMRD) of Gd-DOTAMA-CBP1, Gd-DOTAMA-CBP2 and [Gd-DOTAMA]4-CBP1 were acquired in phosphate buffer saline (PBS) and in 0.6 mM human serum albumin (HSA), at 25 and 37 °C (Supplementary Fig. 3a–c). The profiles obtained were characteristic of small-molecular weight (MW) complexes, even when in the presence of HSA. Table 1 summarises the relaxivity values at 20 MHz and 37 °C, for all probes and for Gadovist[45] a nonpeptide-based (non-targeted) clinically approved contr ...

[7] = system: COL3 remodelling; assay: Enalapril treatment after myocardial infarction, read out by COL3 molecular CMR and cine MRI; assay type: in vivo, mice
[8] = target: T1, COL3; assay: Eu(III) time resolved fluorescence (TRF) plate binding assay on immobilised COL3; conditions: immobilised COL3, probe up to 15 µM
Description: The protocol to assess the binding affinity of the Eu(III)-labelled collagen probes to COL3 has been optimised previously. Such an assay is based on the Eu(III) TRF which detects the amount of Eu(III)-labelled probes that bind to COL3 immobilised on a multi-well plate. The assay was used to measure the COL3 binding affinity of the monomeric Eu(III)-labelled probes (expressed as the dissociation constant, Kd). The same assay was carried out with COL1, to estimate the selectivity for COL3 binding in respect to COL1. Potential unspecific binding effects associated with the assay were investigated by using two types of control experiments: (i) the scrambled versions of the Eu(III)-labelled probes were used as negative controls in TRF plate assays with immobilised collagen (either COL3 or COL1); and (ii) the collagen specific probes were assayed against elastin and bovine serum albumin (BSA) as control non-binding proteins. Briefly, increasing concentrations of the peptide (0.1–15 µM; 70 µL per well) were incubated in 96-well microplates pre-coated with the desired protein. Triplicate readings were taken per concentration and three independent experiments (plates) were used. After incubation of the peptide with the protein for one hour, the plates were washed with PBS to remove any free (unbound) peptide. […] The plates were then read using a luminescence plate reader. […]

[9] = target: T5, Collagen type III (COL3) (Homo sapiens, UniProt P02461); assay: competition Eu(III) time-resolved fluorescence assay
T5 chain: T1 sequence (P02461 154-1221 limits assumed)

DARKSEVQK [CBP1]
binding affinity towards COL3 compared with COL1 (in words) [1]: higher binding affinity towards COL3 than COL1
effect on COL3-induced platelet aggregation (in words) [2]: inhibit

DARKSEVQK [rhodamine-labelled CBP1 analogue probe, CBP1 in fluorescently labelled form, Rhodamine B derivative conjugated to its N-terminus]
co-localisation with COL3-rich fibres within the remodelled aortic wall (in words) [3]: co-localisation of the fluorescent probe with COL3-rich fibres
co-localisation to COL1 fibres (in words) [4]: no co-localisation

O=C([O-])CN1CCN(CC(=O)[O-])CCN([C@H](CO)[C@H](O)CO)CCN(CC(=O)[O-])CC1.[Gd+3] (racemic) [Gadovist]
signal enhancement in the infarct, both timepoints after MI (in words) [5]: No enhancement
r1 in PBS ([6]; column PBS): 3.7 mM⁻¹ s⁻¹
r1 (column HSA 0.6 mM) ([6]; in non-sterile bovine plasma (albumin 0.64 to 0.82 mmol/L)): 6.1* mM^−1 s^−1

CCOC(=O)[C@H](CCc1ccccc1)N[C@@H](C)C(=O)N1CCC[C@H]1C(=O)O [enalapril]
volume of signal enhancement (LGE volume) at day 21 versus untreated mice (in words) ([7]; enalapril 20 mg/kg/day in drinking water after MI, imaged with [Gd-DOTAMA]4-CBP1, n = 7 per group): significantly higher volume of signal enhancement
cardiac geometry and function versus untreated mice (in words) ([7]; enalapril 20 mg/kg/day in drinking water, cine MRI, days 10 and 21 post-MI): no significant differences

CC(C)[C@H](NC(=O)[C@H](CCC(=O)O)NC(=O)[C@H](CO)NC(=O)[C@H](CCCCN)NC(=O)[C@H](CCCNC(=N)N)NC(=O)[C@H](C)NC(=O)[C@H](CC(=O)O)NC(=O)CN1CCN(CC(=O)O)CCN(CC(=O)O)CCN(CC(=O)O)CC1)C(=O)N[C@@H](CCC(N)=O)C(=O)N[C@@H](CCCCN)C(=O)O [Eu-DOTAMA-CBP1] ({DOTA}-DARKSEVQK-OH)
fractional occupancy (FO) at the highest concentration of probe [8]: 74%

Ac-C((Gd-DOTAMA)4 tri‑lysine scaffold)DARKSEVQK (not fully specified) [[Gd-DOTAMA]4-CBP1]
IC50 [9]: 200 µM
